Results published in US20260115183A1, “METHOD AND COMPOSITION FOR PROTECTING OR IMPROVING OVARIAN FUNCTION IN MAMMALS” (NANJING NUTRABUILDING BIO-TECH CO., LTD., priority 2023, published 2026).

Tests used:
Female Wistar rats [1] = assay: Serum hormone determination (T, E2, LH, FSH) by ELISA in rats injected with testosterone propionate; type: in vivo; settings: after 8 weeks of gavage intervention
Experimental: Female Wistar rats weighing 220-230 g were selected, and all rats were free to eat. One week later, without any intervention, they were randomly divided into control group CK (n=10; Placebo); Model group MD (n=10; Placebo); Experimental group A (n=10; Ergothioneine 2.25 mg/kg/d); Experimental group B (n=10; Ergothioneine 2.25 mg/kg/d+Pyrroloquinoline quinone 1.8 mg/kg/d); Experimental group C (n=10; Ergothioneine 2.25 mg/kg/d+Pyrroloquinoline quinone 1.8 mg/kg/d+Oenothera biennis 18 mg/kg/d+inositol 9 mg/kg/d). Four groups of rats were injected with testosterone propionate (10 mg/kg, once a day for 6 weeks) and olive oil continuously. Administration was performed by gavage. Gavage intervention in each group lasted for 8 weeks. Finally, the rats were anesthetized with 1% pentobarbital sodium, and the rats were killed when they were estrus after fasting for 16 h. Blood was collected through abdominal aorta, and the serum was taken after centrifugation at 4° C. for 15 min at a speed of 1000 g. Hormone determination: Serum total testosterone T, luteinizing hormone LH, follicle stimulating hormone FSH and estradiol E2 were determined by ELISA. […] Graphpad 8.0 software was used to analyze the data, and the result data was expressed as standard deviation (x±s), and the significance was analyzed by one-way ANOVA test.

Female Wistar rats [2] = assay: HOMA-IR index from fasting insulin and fasting blood glucose; type: in vivo; settings: calculated from fasting blood glucose and fasting insulin; Model group 12.5
Experimental: (§1) Female Wistar rats weighing 220-230 g were selected, and all rats were free to eat. One week later, without any intervention, they were randomly divided into control group CK (n=10; Placebo); Model group MD (n=10; Placebo); Experimental group A (n=10; Ergothioneine 2.25 mg/kg/d); Experimental group B (n=10; Ergothioneine 2.25 mg/kg/d+Pyrroloquinoline quinone 1.8 mg/kg/d); Experimental group C (n=10; Ergothioneine 2.25 mg/kg/d+Pyrroloquinoline quinone 1.8 mg/kg/d+Oenothera biennis 18 mg/kg/d+inositol 9 mg/kg/d). Four groups of rats were injected with testosterone propionate (10 mg/kg, once a day for 6 weeks) and olive oil continuously. Administration was performed by gavage.
(§2) OGTT, insulin, HOMA-IR and blood lipid were measured in each group at the last week of gavage. After fasting for 16 h, fasting blood glucose (0 min) was measured. Subsequently, rats were intraperitoneally injected with 50% glucose solution (2 g/kg). At each time point (0 min, 30 min, 60 min, 120 min), the blood glucose of rats was measured by glucose oxidase method. […] Serum total cholesterol (TC) and total triglyceride (TG) were detected by total cholesterol detection kit and triglyceride detection kit.
(§3) Graphpad 8.0 software was used to analyze the data, and the result data was expressed as standard deviation (x±s), and the significance was analyzed by one-way ANOVA test.

Female Wistar rats [3] = assay: Serum total cholesterol (TC) and total triglyceride (TG) detection; settings: rat, in vivo
Experimental: Female Wistar rats weighing 220-230 g were selected, and all rats were free to eat. One week later, without any intervention, they were randomly divided into control group CK (n=10; Placebo); Model group MD (n=10; Placebo); Experimental group A (n=10; Ergothioneine 2.25 mg/kg/d); Experimental group B (n=10; Ergothioneine 2.25 mg/kg/d+Pyrroloquinoline quinone 1.8 mg/kg/d); Experimental group C (n=10; Ergothioneine 2.25 mg/kg/d+Pyrroloquinoline quinone 1.8 mg/kg/d+Oenothera biennis 18 mg/kg/d+inositol 9 mg/kg/d). Four groups of rats were injected with testosterone propionate (10 mg/kg, once a day for 6 weeks) and olive oil continuously. Administration was performed by gavage. Gavage intervention in each group lasted for 8 weeks. […] OGTT, insulin, HOMA-IR and blood lipid were measured in each group at the last week of gavage. After fasting for 16 h, fasting blood glucose (0 min) was measured. […] At each time point (0 min, 30 min, 60 min, 120 min), the blood glucose of rats was measured by glucose oxidase method. […] Serum total cholesterol (TC) and total triglyceride (TG) were detected by total cholesterol detection kit and triglyceride detection kit. Graphpad 8.0 software was used to analyze the data, and the result data was expressed as standard deviation (x±s), and the significance was analyzed by one-way ANOVA test.

Female Wistar rats [4] = assay: OGTT blood glucose by glucose oxidase method in rats injected with testosterone propionate; type: in vivo; settings: different time points within 120 min, last week of gavage
Experimental: as §1, §2, §3

## C[N+](C)(C)[C@@H](Cc1c[nH]c(=S)[nH]1)C(=O)[O-] [Experimental group A, Ergothioneine]
Female Wistar rats [1]
  serum E2 compared with the Model group: decreased significantly
  serum T compared with the Model group: decreased significantly
Female Wistar rats [2]
  HMOA-IR index: 11.3
Female Wistar rats [3]
  content of TC in serum compared with the Model group: significantly reduce
  content of TG in serum compared with the Model group: significantly reduce
Female Wistar rats [4]
  blood glucose levels compared with the Model group: decreased significantly
